From article PMC4777480, “Trichoderma harzianum Produces a New Thermally Stable Acid Phosphatase, with Potential for Biotechnological Application” (PLoS ONE, 2016)

Columns and labels:
ACPase II = target: T1, ACPase II (Trichoderma harzianum, UniProt A0A2T3ZY58); conditions: 5000 µM; 5 mM inorganic phosphate, 60°C; Table 3 gives residual activity instead
T1 construct: gene M431DRAFT_96728
T1 sequence (A0A2T3ZY58 21-556): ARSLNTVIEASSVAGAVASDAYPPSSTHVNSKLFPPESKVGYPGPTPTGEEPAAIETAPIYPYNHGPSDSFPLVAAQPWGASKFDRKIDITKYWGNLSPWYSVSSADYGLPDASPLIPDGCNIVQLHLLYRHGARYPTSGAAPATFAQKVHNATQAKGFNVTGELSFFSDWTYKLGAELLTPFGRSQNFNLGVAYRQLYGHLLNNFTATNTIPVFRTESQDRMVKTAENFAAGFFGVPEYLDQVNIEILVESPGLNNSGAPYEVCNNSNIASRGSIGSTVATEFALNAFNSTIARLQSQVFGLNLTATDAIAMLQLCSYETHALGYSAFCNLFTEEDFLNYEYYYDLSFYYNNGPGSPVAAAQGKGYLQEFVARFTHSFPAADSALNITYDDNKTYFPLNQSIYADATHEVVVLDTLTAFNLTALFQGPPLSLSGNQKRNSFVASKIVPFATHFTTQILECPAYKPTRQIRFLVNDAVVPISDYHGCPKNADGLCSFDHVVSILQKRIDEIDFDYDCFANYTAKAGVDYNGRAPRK

[1] = target: the molecule itself; assay: SEC + other: dynamic light scattering; data not shown; ACPase II in solution, eluted in the void volume; hydrodynamic radius 14.3 nm, mass 326 kDa; conditions of the light scattering not told

## O=P(O)(O)O [sodium phosphate]
ACPase II
  ACPase II: 65.0 ± 2.0%

B1: ACPase II (acid phosphatase II) from Trichoderma harzianum (enzyme)
chain: ARSLNTVIEASSVAGAVASDAYPPSSTHVNSKLFPPESKVGYPGPTPTGEEPAAIETAPIYPYNHGPSDSFPLVAAQPWGASKFDRKIDITKYWGNLSPWYSVSSADYGLPDASPLIPDGCNIVQLHLLYRHGARYPTSGAAPATFAQKVHNATQAKGFNVTGELSFFSDWTYKLGAELLTPFGRSQNFNLGVAYRQLYGHLLNNFTATNTIPVFRTESQDRMVKTAENFAAGFFGVPEYLDQVNIEILVESPGLNNSGAPYEVCNNSNIASRGSIGSTVATEFALNAFNSTIARLQSQVFGLNLTATDAIAMLQLCSYETHALGYSAFCNLFTEEDFLNYEYYYDLSFYYNNGPGSPVAAAQGKGYLQEFVARFTHSFPAADSALNITYDDNKTYFPLNQSIYADATHEVVVLDTLTAFNLTALFQGPPLSLSGNQKRNSFVASKIVPFATHFTTQILECPAYKPTRQIRFLVNDAVVPISDYHGCPKNADGLCSFDHVVSILQKRIDEIDFDYDCFANYTAKAGVDYNGRAPRK
modifications: glycoprotein, approximately 30% carbohydrate (N- and O-glycosylation)
[1]
  stoichiometry N: 4
